The results in this text go back to patent US10968203B2, “Pyrimidinyl-pyridyloxy-naphthyl compounds and methods of treating IRE1-related diseases and disorders” (Genentech, Inc., priority 2017, dated 2021).

SMILES strings stand for the structures. Where a name gives a salt, the structure may show the parent alone.

By IC50 is commonly meant the concentration at which inhibition is half-maximal.

The first test deals with XBP1s-luc 293 LUC. Put plainly: cellular PD assay, XBP1s-LUC reporter (Example 903). It is filed as cell-based. The note with it: Table 1; read-out: XBP1s-luc 293 LUC (IC50). The gist of the method:
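A luciferase fusion, in frame and expressed only when the XBP1 transcript is spliced, served as the readout of cellular IRE1α activity in an XBP1-Luc reporter line.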
In the case of `Cc1ccc2c(NC(=O)C(C)(C)C#N)cccc2c1Oc1ncccc1-c1ccnc(N[C@H]2CCCNC2)n1` [Example 363, (S)-2-Cyano-2-methyl-N-(6-methyl-5-((3-(2-(piperidin-3-ylamino)pyrimidin-4-yl)pyridin-2-yl)oxy)naphthalen-1-yl)propanamide], the IC50 is 408 nM.

Consider `Cc1ccc2c(NC(=O)[C@@H]3CCC(F)(F)C3)cccc2c1Oc1ncccc1-c1ccnc(N[C@H]2CCCNC2)n1` (single isomer, unassigned) [Example 269], for which the half-maximal inhibitory concentration (IC50) came to 336 nM.

Consider `Cc1ccc2c(NC(=O)C(C)C)cccc2c1Oc1ncccc1-c1ccnc(N[C@H]2CCCNC2)n1` [Example 263, (S)—N-(6-Methyl-5-((3-(2-(piperidin-3-ylamino)pyrimidin-4-yl)pyridin-2-yl)oxy)naphthalen-1-yl)isobutyramide hydrochloride], for which the IC50 was determined as 362 nM.

`C=CS(=O)(=O)Nc1cccc2c(Oc3ncccc3-c3ccnc(N[C@H]4CCCNC4)n3)c(C)ccc12` [Example 147, (S)—N-(6-Methyl-5-((3-(2-(piperidin-3-ylamino)pyrimidin-4-yl)pyridin-2-yl)oxy)naphthalen-1-yl)ethenesulfonamide]: the IC50 is 139 nM.

For the molecule `Cc1ccc2c(N3C(=O)CCC3C)cccc2c1Oc1ncccc1-c1ccnc(N[C@H]2CCCNC2)n1` (mixture of isomers) [Example 237, 5-Methyl-1-(6-methyl-5-((3-(2-((S)-piperidin-3-ylamino)pyrimidin-4-yl)pyridin-2-yl)oxy)naphthalen-1-yl)pyrrolidin-2-one], the concentration for half-maximal inhibition (IC50) was 472 nM.

`Cc1ccc2c(NC(=O)[C@@H]3C[C@H]3C)cccc2c1Oc1ncccc1-c1ccnc(N[C@H]2CCCNC2)n1` [Example 232, (1R,2R)-2-Methyl-N-(6-methyl-5-((3-(2-(((S)-piperidin-3-yl)amino)pyrimidin-4-yl)pyridin-2-yl)oxy)naphthalen-1-yl)cyclopropane-1-carboxamide]: the IC50 was found to be 136 nM.

Consider `Cc1cc(NS(=O)(=O)C2CCC2)c2ccccc2c1Oc1ncccc1-c1ccnc(N[C@H]2CC[C@H](N)CC2)n1` [Example 111, N-(4-((3-(2-(((trans)-4-Aminocyclohexyl)amino)pyrimidin-4-yl)pyridin-2-yl)oxy)-3-methylnaphthalen-1-yl)cyclobutanesulfonamide hydrochloride], for which the concentration for half-maximal inhibition (IC50) was found to be 447 nM.

In the case of `Cc1ccc2c(NC(=O)[C@H]3CC34CCCC4)cccc2c1Oc1ncccc1-c1ccnc(N[C@H]2CCCNC2)n1` (single isomer, unassigned) [Example 253], the 50% inhibitory concentration (IC50) is 352 nM.

In the case of `COCCCS(=O)(=O)Nc1cccc2c(Oc3ncccc3-c3ccnc(N[C@H]4CCCNC4)n3)c(C)ccc12` [Example 132, (S)-3-Methoxy-N-(6-methyl-5-((3-(2-(piperidin-3-ylamino)pyrimidin-4-yl)pyridin-2-yl)oxy)naphthalen-1-yl)propane-1-sulfonamide hydrochloride], the IC50 was found to be 365 nM.

Take `CC[C@H]1CCN(c2cccc3c(Oc4ncccc4-c4ccnc(N[C@H]5CCCNC5)n4)c(C)ccc23)C1=O` (single isomer, unassigned) [Example 355]: the 50% inhibitory concentration (IC50) worked out at 365 nM.

Consider `Cc1ccc2c(NCC(O)C(C)C)cccc2c1Oc1ncccc1-c1ccnc(N[C@H]2CCCNC2)n1` (mixture of isomers) [Example 200, 3-Methyl-1-((6-methyl-5-((3-(2-((S)-piperidin-3-ylamino)pyrimidin-4-yl)pyridin-2-yl)oxy)naphthalen-1-yl)amino)butan-2-ol], for which the IC50 was determined as 77 nM.

Regarding `Cc1ccc2c(NCC3CC3(F)F)cccc2c1Oc1ncccc1-c1ccnc(N[C@H]2CCCNC2)n1` (mixture of isomers) [Example 341, 4-(2-((5-(((2,2-Difluorocyclopropyl)methyl)amino)-2-methylnaphthalen-1-yl)oxy)pyridin-3-yl)-N—((S)-piperidin-3-yl)pyrimidin-2-amine], the IC50 came to 118 nM.

As for `Cc1ccc2c(NC(=O)[C@@H]3CC34CC4)cccc2c1Oc1ncccc1-c1ccnc(N[C@H]2CCCNC2)n1` (single isomer, unassigned) [Example 218], the IC50 came out at 174 nM.

Regarding `Cc1ccc2c(NC(=O)CC3CCCCC3)c(F)ccc2c1Oc1ncccc1-c1ccnc(N[C@H]2CCCNC2)n1` [Example 364, (S)-2-Cyclohexyl-N-(2-fluoro-6-methyl-5-((3-(2-(piperidin-3-ylamino)pyrimidin-4-yl)pyridin-2-yl)oxy)naphthalen-1-yl)acetamide], the IC50 is 216 nM.

The test is the same for the next values; noted with them: Table 2; read-out: XBP1s-luc 293 LUC (IC50).
As to `Cc1ccc2c(NC[C@H](O)C(F)F)cccc2c1Oc1ncccc1-c1ccnc(N[C@H]2CCCNC2)n1` (single isomer, unassigned) [Example 475, hydrochloride], the IC50 stood at 19 nM.

In the case of `Cc1ccc2c(NS(=O)(=O)CC3CC3(F)F)c(F)ccc2c1Oc1ncccc1-c1ccnc(N[C@H]2CCCNC2)n1` (mixture of isomers) [Example 467, 1-(2,2-Difluorocyclopropyl)-N-(2-fluoro-6-methyl-5-((3-(2-((S)-piperidin-3-ylamino)pyrimidin-4-yl)pyridin-2-yl)oxy)naphthalen-1-yl)methanesulfonamide hydrochloride], the concentration for half-maximal inhibition (IC50) came to 42 nM.

For `CC/C(F)=C/S(=O)(=O)Nc1c(F)ccc2c(Oc3ncccc3-c3ccnc(N[C@H]4CCCNC4)n3)c(C)ccc12` [Example 457, (S,Z)-2-Fluoro-N-(2-fluoro-6-methyl-5-((3-(2-(piperidin-3-ylamino)pyrimidin-4-yl)pyridin-2-yl)oxy)naphthalen-1-yl)but-1-ene-1-sulfonamide hydrochloride], the half-inhibitory concentration (IC50) worked out at 105 nM.

With `Cc1ccc2c(NS(=O)(=O)Cc3ccccn3)c(F)ccc2c1Oc1ncccc1-c1ccnc(N[C@H]2CCCNC2)n1` [Example 494, (S)—N-(2-Fluoro-6-methyl-5-((3-(2-(piperidin-3-ylamino)pyrimidin-4-yl)pyridin-2-yl)oxy)naphthalen-1-yl)-1-(pyridin-2-yl)methanesulfonamide hydrochloride], the 50% inhibitory concentration (IC50) is 12.5 nM.

`COc1c(Cl)cccc1CS(=O)(=O)Nc1c(F)ccc2c(Oc3ncccc3-c3ccnc(N[C@H]4CCCNC4)n3)c(C)ccc12` [Example 437, (S)-1-(3-Chloro-2-methoxyphenyl)-N-(2-fluoro-6-methyl-5-((3-(2-(piperidin-3-ylamino)pyrimidin-4-yl)pyridin-2-yl)oxy)naphthalen-1-yl)methanesulfonamide hydrochloride]: the IC50 was 18 nM.

With `Cc1ccc2c(NS(=O)(=O)N(C)CCC(F)(F)F)c(F)ccc2c1Oc1ncccc1-c1ccnc(N[C@H]2CCCNC2)n1` [Example 441, 4-[2-[[6-Fluoro-2-methyl-5-[[methyl(3,3,3-trifluoropropyl)sulfamoyl]amino]-1-naphthyl]oxy]-3-pyridyl]-2-[[(3S)-3-piperidyl]amino]pyrimidine hydrochloride], the 50% inhibitory concentration (IC50) turned out to be 48 nM.

With `Cc1ccc2c(NS(=O)(=O)Cc3ccccc3F)c(F)ccc2c1Oc1ncccc1-c1ccnc(N[C@@H]2CNC[C@H](C)C2)n1` [Example 477, N-(2-Fluoro-6-methyl-5-((3-(2-(((3S,5R)-5-methylpiperidin-3-yl)amino)pyrimidin-4-yl)pyridin-2-yl)oxy)naphthalen-1-yl)-1-(2-fluorophenyl)methanesulfonamide], the half-maximal inhibitory concentration (IC50) worked out at 7 nM.
